The values that follow come from patent EP0461043A2, “Enantiomer separation by transesterification” (SEPRACOR, INC., priority 1990, dated 1991).

SMILES strings stand for the structures. Counter-ions that a name gives are not always drawn.

One data set in a line: Water solubility. It counts as physicochemical. The settings on record: for water solubility: charged water-soluble reactant esters (salts), values given in M; for solubility in water: esters, values given in mM.
For data set [1] the following is noted: L form relative to D form; cited from earlier work.

Regarding `COc1ccc2cc(C(C)C(=O)OCC[N+](C)(C)C)ccc2c1` (racemic) [choline ester of 2-(6-methoxy-2-naphthyl) propanoic acid], in “Water solubility”, the water solubility stood at 1610 mM.

Turning to `CC(C)Cc1ccc(C(C)C(=O)O)cc1` (stereo not drawn) [Ibuprofen, 2-(p-isobutylphenyl) propanoic acid, reference compound], the “water solubility at room temperature” value in “Water solubility” (acid forms, room temperature, varies with pH) is “single digit mM range”.

As to `CC(C)NCC(O)COc1cccc2ccccc12` (stereo not drawn) [L form of the beta blocker propranolol, propranolol], in data set [1], the “times more potent than the D form” value is listed as 100 times.

Consider `COCCOC(=O)C(C)c1ccc(CC(C)C)cc1` (stereo not drawn) [methoxy-ethyl ester of Ibuprofen], for which the solubility in water entry in the data set “Water solubility” is “approximately 0.18 mM”.

Consider `CC(C)Cc1ccc(C(C)C(=O)OCC[N+](C)(C)C)cc1` (stereo not drawn) [methyl sulfate salt of N,N,N-trimethylammonium ethyl ester of Ibuprofen], for which the water solubility in “Water solubility” was determined as 2180 mM.

In the case of `CCCCCCCCOC(=O)C(C)Cl` (stereo not drawn) [octyl ester of 2-chloropropanoic acid], the solubility in water entry in “Water solubility” is “about 1.2 mM”.
